# Where a name gives a salt, the structure may show the parent alone.
# Legend:
# [1] = Intrinsic clearance in human liver microsomes; format: in vitro ADME; details: human, pooled human liver microsomes, pH 7.4, human liver microsome assay, 1 μM test compound; mean +/− STD Dev
# Procedure: The incubations were conducted at 37° C. […] (Sorvall R C 3C Plus, Thermo Scientific, Waltham, Mass.).
# [2] = High throughput determination of intrinsic clearance in human hepatocytes; format: in vitro ADME; details: human, pooled cryopreserved human hepatocytes (suspension), high throughput human hepatocyte assay, 1 μM test compound; mean +/− Std Dev
# Procedure: The incubation was carried out at 37° C. […] The samples were centrifuged (Eppendorf, Hauppauge, N.Y.) at 3000 rpm for 5 min at 4° C.
# [3] = Determination of pKa (capillary electrophoresis, Analiza); format: physicochemical; details: most basic pKa, mean
microsomal CLint at 1 μM [1] [µL/min/mg],hepatocyte CLint at 1 μM [2] [µL/min/1e6 cells],pKa [3],Structure (SMILES)
< 8,–,–,"CCOc1cccnc1Oc1cncc(-c2ncc(C(=O)NC3CCCNC3C)cn2)c1 (mixture of isomers) [Example 23, 2-{5-[(3-ethoxypyridin-2-yl)oxy]pyridin-3-yl}-N-(2-methylpiperidin-3-yl)pyrimidine-5-carboxamide, trifluoroacetate salt, mixture of stereoisomers]"
21,5.3,–,"CCOc1cccnc1Oc1cncc(-c2ncc(C(=O)N[C@H]3CNCCC3(F)F)cn2)c1 (single isomer, unassigned) [Example 15, N-[(3S)-4,4-difluoropiperidin-3-yl]-2-{5-[(3-ethoxypyridin-2-yl)oxy]pyridin-3-yl}pyrimidine-5-carboxamide, trifluoroacetate salt or N-[(3R)-4,4-difluoropiperidin-3-yl]-2-{5-[(3-ethoxypyridin-2-yl)oxy]pyridin-3-yl}pyrimidine-5-carboxamide, trifluoroacetate salt]"
19,9.3,5.2,"CCOc1cccnc1Oc1cncc(-c2ncc(C(=O)N[C@@H]3CNCC(F)(F)C3)cn2)c1 (single isomer, unassigned) [Example 18, N-[(3S)-5,5-difluoropiperidin-3-yl]-2-{5-[(3-ethoxypyridin-2-yl)oxy]pyridin-3-yl}pyrimidine-5-carboxamide or N-[(3R)-5,5-difluoropiperidin-3-yl]-2-{5-[(3-ethoxypyridin-2-yl)oxy]pyridin-3-yl}pyrimidine-5-carboxamide]"
< 7,3.6,7.3,"CCOc1cc(F)cnc1Oc1cncc(-c2ncc(C(=O)N[C@@H]3CNC[C@@H](F)C3)cn2)c1 [Example 2, 2-{5-[(3-Ethoxy-5-fluoropyridin-2-yl)oxy]pyridin-3-yl}-N-[(3S,5S)-5-fluoropiperidin-3-yl]pyrimidine-5-carboxamide]"
< 7.8,4.7,7.4,"CCOc1cc(F)cnc1Oc1cncc(-c2ncc(C(=O)N[C@@H]3CNCC[C@H]3F)cn2)c1 [Example 6, 2-{5-[(3-Ethoxy-5-fluoropyridin-2-yl)oxy]pyridin-3-yl}-N-[(3R,4R)-4-fluoropiperidin-3-yl]pyrimidine-5-carboxamide]"
< 7,< 2.6,7.5,"CCOc1cccnc1Oc1cncc(-c2ncc(C(=O)N[C@H]3CNCC[C@@H]3F)cn2)c1 [Example 12, 2-{5-[(3-ethoxypyridin-2-yl)oxy]pyridin-3-yl}-N-[(3S,4S)-4-fluoropiperidin-3-yl]pyrimidine-5-carboxamide, trifluoroacetate salt]"
35,12,6.7,"CCOc1cc(F)cnc1Oc1cncc(-c2ncc(C(=O)N[C@H]3CNCC[C@@H]3F)cn2)c1 [Example 13, 2-{5-[(3-ethoxy-5-fluoropyridin-2-yl)oxy]pyridin-3-yl}-N-[(3S,4S)-4-fluoropiperidin-3-yl]pyrimidine-5-carboxamide, formate salt]"
< 8,< 1.8,–,"CCOc1cccnc1Oc1cncc(-c2ncc(C(=O)N[C@H]3CCCNC3)cn2)c1 [Example 14, 2-{5-[(3-ethoxypyridin-2-yl)oxy]pyridin-3-yl}-N-[(3S)-piperidin-3-yl]pyrimidine-5-carboxamide, trifluoroacetate salt]"
< 8,–,–,"CCOc1cccnc1Oc1cncc(-c2ncc(C(=O)NC3CCCNC3)cn2)c1 (stereo not shown) [Example 21, 2-{5-[(3-ethoxypyridin-2-yl)oxy]pyridin-3-yl}-N-(piperidin-3-yl)pyrimidine-5-carboxamide, trifluoroacetate salt]"
< 8,–,–,"CCOc1cccnc1Oc1cncc(-c2ncc(C(=O)N[C@@H]3CCCNC3)cn2)c1 [Example 22, 2-{5-[(3-ethoxypyridin-2-yl)oxy]pyridin-3-yl}-N-[(3R)-piperidin-3-yl]pyrimidine-5-carboxamide, trifluoroacetate salt]"

# — patent publication US11065249B2, “Diacylglycerol acyl transferase 2 inhibitor” (Pfizer Inc., priority 2019, dated 2021)
